Measured values as given in patent publication US20140050778A1, “NUCLEIC ACID BINDING COMPOUNDS, METHODS OF MAKING, AND USE THEREOF” (UNIVERSITY OF ROCHESTER, priority 2010, published 2014).
Entries after “also recorded” stand apart in the source; their conditions may differ.

Assays:
(CUG)10 RNA = assay: Fluorescence titration (benzo[g]quinoline quenching); assay type: binding; conditions: (CUG)10, 1 μM compound in HBS-N
Method: The benzo[g]quinoline moiety is fluorescent, with excitation and emission maxima at 362 nm and 439 nm respectively in methanol. Fluorescence titration binding measurements were performed on a Cary Eclipse fluorescence spectrophotometer using a 10 mm path-length semimicro quartz fluorescence cell with 400 μL sample holding capacity. Absorbance measurements were carried out on a UV-Visible spectrophotometer (Shimadzu, UV-1601PC) using a 1 mL (1 cm path-length) quartz cell. Spectroscopic grade anhydrous methanol used in the measurement of relative quantum yield of the 2-ethyl benzo[g]quinoline carboxylic acid was purchased from Alfa Aesar and was used without further purification. For these measurements, known procedures were used (Lee and Grissom, “Design, Synthesis, and Characterization of Fluorescent Cobalamin Analogues with High Quantum Efficiencies,” Org. Lett. 11:2499-2502 (2009); Joseph R. Lakowicz, Principles of Fluorescence Spectroscopy, 2nd edition (Kluwer Academic/Plenum Publishers, 1999), which are hereby incorporated by reference in their entirety). Briefly, RNA (10 μM stock) in HBS-N buffer was titrated into a solution of 1 μM compound in HBS-N. After each addition of RNA, ten minutes were allowed for equilibration before recording the change in fluorescence at 468.5 nm. Fluorescence units (“FU”) were then corrected for dilution and the FU after each addition was subtracted from the FU at zero RNA concentration to give AFU. Following saturation, AFU was plotted against RNA concentration using Origin 7 (OriginLab, Inc.), and fitted to a 1:1 Langmuir binding model to obtain apparent dissociation constants (Kn). […]
Selected equilibrium affinities for (CUG)10 were confirmed by fluorescence titration. The quantum yield of the ethylbenzo[g]quinoline carboxylic acid (compound 2), relative to quinine sulfate, was determined to be 0.64 (FIGS. 5A-F). […] Apparent KD values measured in this manner are consistent with those obtained by SPR (Table 6); that they are not identical to SPR-measured values likely results from the differing formats of the two methods. […]

[1] = target: (CUG)10 RNA (SEQ ID NO: 3); assay: SPR binding to immobilized biotinylated RNA
Method: (§1) SPR binding measurements were performed on a Biacore-X instrument (Biacore, Inc., Uppsala, Sweden) with two flow channels (FC1 and FC2). 5′-Biotinylated-RNA sequences, with a C6 linker separating the biotin label from the RNA (Integrated DNA Technologies Inc.) were immobilized on streptavidin (Rockland Immunochemicals) functionalized carboxylmethyl dextran coated sensor chips (CM5, G.E. Healthcare) using EDC/NHS (Advanced ChemTech) coupling chemistry. Filtered (0.2μ), degassed and autoclaved HBS-N buffer (0.01M Hepes, pH=7.4, 0.15 M NaCl) was employed as sample and as running buffer for all SPR experiments. A typical protocol for an experiment is as follows: A CM5 sensor chip was allowed to equilibrate to room temperature and then docked into the instrument. Following priming with running buffer, FC1 and FC2 were conditioned by manual injection of 20 μL aqueous NaOH (50 mM) at a flow rate of 30 μL/min. This was repeated 3 times followed by a wash command. Next, the carboxyl groups on the sensor chip surface in both flow cells were activated separately by injecting 60 μL of freshly prepared 1:1 mixture of EDC (0.4 M) and NHS (0.1 M) at a 5 μL/min flow rate followed by a wash. […] After washing, the surface was deactivated with 60 μL injection of ethanolamine (1M, pH=8.5) at 5 μL/min. The flow cells were primed, and the streptavidin surface in FC1 alone was blocked with 30 μL of biotin (20 μM in HBS-N) at 5 μL/min. The RNA (200 nM in running buffer, HBS-N) to be immobilized was unfolded by heating above its predicted melting temperature in a heated block for 2 min and then allowed to refold by cooling gradually to room temperature. The RNA was then immobilized in FC2 alone to response units ranging from 200-1000 RU using a 5 μL/min flow rate. Representative sensorgrams for the immobilization procedure is shown in FIGS. 2A-B. Two 20 μL aliquots of NaCl (0.5 M) were injected at a 30 μL/min flow rate to remove non-specifically bound RNA. The level of RNA immobilized was noted when the baseline was stable, usually after repeated buffer injection followed by a “prime” command. Binding measurements were performed by flowing various concentrations of the compounds to be analyzed over the immobilized RNA and recording the reference-subtracted (FC2−FC1) sensorgrams. For kinetic analysis, at least five sensorgrams corresponding to different concentrations of compound (usually ranging from 0.05-1 μM in HBS-N) were obtained using flow rates of either 60 μL/min or 30 μL/min. The experimental sensorgrams were globally fitted to a 1:1 binding equation (Biaevaluation software) to obtain association rates (ka) and dissociation rates ([…]) as well as equilibrium binding constants (KD). To measure the binding stoichiometry (n), the relations in equations (1-3) below were used: […]
(§2) where RUmax is the maximum resonance response unit at saturation, RURNA is the amount RU of RNA immobilized, n is the stoichiometry, MWcompound and MWRNA are molecular weights of compound and RNA respectively, and RUeq represents the resonance response at steady-state (equilibrium). The response units at equilibrium were subjected to Scatchard binding plots of (r/Cfree vs. r).
This technique allows the association and dissociation rates (ka and kd), equilibrium binding constants (KD), and the binding stoichiometry (n) to be measured in a label-free format (Liu and Wilson, “Quantitative Analysis of Small Molecule-nucleic Acid Interactions with a Biosensor Surface and Surface Plasmon Resonance Detection,” Methods Mol. Biol. 613:1-23 (2010), which is hereby incorporated by reference in its entirety).

[2] = system: CUG-CAG duplex ("Duplex") (SEQ ID NO: 6); assay: SPR binding to immobilized biotinylated RNA; conditions: Duplex
Method: as §1, §2
(§3) The binding characteristics of compounds 3-11 were evaluated against pathogenic CUG^exp RNA and other RNA sequences by SPR. This technique allows the association and dissociation rates (ka and kd), equilibrium binding constants (KD), and the binding stoichiometry (n) to be measured in a label-free format (Liu and Wilson, “Quantitative Analysis of Small Molecule-nucleic Acid Interactions with a Biosensor Surface and Surface Plasmon Resonance Detection,” Methods Mol. Biol. 613:1-23 (2010), which is hereby incorporated by reference in its entirety). […]

[3] = system: (CCUG)10 RNA (SEQ ID NO: 4); assay: SPR binding to immobilized biotinylated RNA; conditions: (CCUG)10
Method: as §1, §2, §3

[4] = system: (CAG)10 RNA (SEQ ID NO: 5); assay: SPR binding to immobilized biotinylated RNA
Method: as §1, §2, §3

HSA^LR transgenic mice = assay: MBNL1-dependent splicing in mouse myotonic dystrophy model (RT-PCR, vastus muscle); assay type: in vivo; conditions: 40 mg/kg intraperitoneally once per day for 5 days
Method: Mouse handling and experimental procedures were conducted in accordance with the Association for Assessment and Accreditation of Laboratory Animal Care. […] Age- and gender-matched HSA^LR mice (12-16 weeks old) were injected intraperitoneally with 40 mg/kg of compounds or saline alone once per day for 5 days. Mice were sacrificed one day after the last injection, and vastus muscle was obtained for splicing analysis. RNA extraction, cDNA preparation, and RT-PCR were performed as described previously. The PCR products were electrophoresed on agarose gels for separation, and scanned with a laser fluorimager (Typhoon, GE Healthcare). Quantitative analysis of amplified products was performed by ImageQuant software (Molecular Dynamics). Differences between two groups were evaluated by unpaired Student's t-test. A critical test of a compound's performance is its ability to function in vivo. DM1 has several well-studied mouse models (Gomes-Pereira et al., “Myotonic Dystrophy Mouse Models: Towards Rational Therapy Development,” Trends Mol. Med. 17:506-517 (2011), which is hereby incorporated by reference in its entirety). Compound activity in the HSA^LR mouse model, in which transgenic mice carry a long CTG repeat inserted into the human skeletal actin (HSA) gene in skeletal muscle (Mankodi, “Myotonic Dystrophy in Transgenic Mice Expressing an Expanded CUG Repeat,” Science 289:1769-1772 (2000), which is hereby incorporated by reference in its entirety) was examined. […] They also display aberrant splicing of genes, including Clcn1 and Atp2a1, which are hallmarks of nuclear transcript sequestration.

[5] = system: HIV-1 FSS RNA (SEQ ID NO: 7); assay: SPR binding to immobilized biotinylated RNA
Method: as §1
as §2, with “r). […]” for “r).”
SPR and fluorescence titration experiments, performed using the protocol described in Examples 3 and 4 above, except using as the target a highly conserved RNA sequence responsible for regulating the production of the Gag-Pol polyprotein via a −1 ribosomal frameshift, which occurs along a “slippery sequence” in gag-pol mRNA (SEQ ID NO: 7). This “frameshift stimulatory sequence” (or “HIV-1 FSS”) consists of an upper stemloop and a lower stem, separated by a purine bulge in the most common types of HIV (FIG. 19). For the fluorescent titration experiments, the upper stemloop of SEQ ID NO: 7 was employed. Cell uptake and toxicity studies were carried out using human fibroblasts according to Example 5 above.

mouse C2C12 myoblasts = assay: Cell permeability by fluorescence microscopy; assay type: cell-based; conditions: 12 h, 125 μM, intrinsic fluorescence
Method: For cell permeability studies, human fibroblasts or mouse myoblasts grown to 80% confluence were exposed to compounds for 12 hours in a 96 well tissue culture plate. After removal of the culture media (DMEM, with 10% FBS, 1% pen-strep (GIBCO)) the cells were washed twice with PBS to remove excess compounds. Cells were then imaged while in buffer under a fluorescence microscope (Olympus IX70) in the 96-well plate using a 460 nm emission filter.

| Structure (SMILES) | apparent KD ((CUG)10 RNA) | apparent KD ([1]; SPR, (CUG)10) | Residence time (t1/2) for compound binding to RNA [2] | Off-rates (koff) ([2]; SPR) | On-rates (kon) ([2]; SPR) | Residence time (t1/2) for compound binding to RNA [3] | Off-rates (koff) ([3]; SPR) | On-rates (kon) ([3]; SPR) | Residence time (t1/2) for compound binding to RNA [4] | Off-rates (koff) ([4]; SPR) | On-rates (kon) ([4]; SPR) | improvement of Clcn1 splicing (HSA^LR transgenic mice) | Residence time (t1/2) for compound binding to RNA [5] | Off-rates (koff) ([5]; SPR) | On-rates (kon) ([5]; SPR) | cell membrane penetration / localization (mouse C2C12 myoblasts) | Residence time (t1/2) for compound binding to RNA ([1]; (CUG)10) | Off-rates (koff) ([1]; SPR, (CUG)10) | On-rates (kon) ([1]; SPR, (CUG)10) | sequence selectivity ([1]; SPR, CUG repeats versus other RNAs) |
| --- | --- | --- | --- | --- | --- | --- | --- | --- | --- | --- | --- | --- | --- | --- | --- | --- | --- | --- | --- | --- |
| C=CC[C@H](NC(=O)[C@@H]1CCCN1C(=O)c1cc2cc3ccccc3cc2nc1CC)C(=O)N[C@@H](CCCCN)C(=O)NCCCN [Compound 3] | No binding | no measurable affinity; also recorded: complete lack of binding |  |  |  |  |  |  |  |  |  |  |  |  |  |  |  |  |  |  |
| CCc1nc2cc3ccccc3cc2cc1C(=O)N[C@@H](CCCCN)C(=O)N[C@@H](C/C=C/C[C@H](NC(=O)[C@H](CCCCN)NC(=O)c1cc2cc3ccccc3cc2nc1CC)C(=O)N1CCC[C@H]1C(=O)NCCCN)C(=O)N1CCC[C@H]1C(=O)NCCCN [Compound 9] |  | reduced affinity | 6.2097 min | 0.00186 s⁻¹ | 24300 M⁻¹ s⁻¹ | 4.262 min | 0.00271 s⁻¹ | 19900 M⁻¹ s⁻¹ | 3.3575 min | 0.00344 s⁻¹ | 15700 M⁻¹ s⁻¹ | not | 5.775 min | 0.002 s⁻¹ | 32300 M⁻¹ s⁻¹ | significantly less able to enter cells than compounds 4, 5, or 11 | 4.0527 min | 0.00285 s⁻¹ | 24200 M⁻¹ s⁻¹ | no selectivity for CUG or CCUG repeats relative to duplex CUG-CAG or HIV-1 FSS RNAs |
